Calls of active or inactive are those of the source. No cut-off for these calls is given here.
Legend:
518A2 [1] = assay: Induction of apoptosis in human 518A2 cells assessed as viable cells at 50 uM after 6 hrs by Annexin V FITC and propidium iodide staining by FACS analysis; type: functional; details: 518A2, 6 h, read-out: Activity
[2] = Cell cycle arrest in human 518A2 cells assessed as accumulation at G2/M phase at 50 uM after 24 hrs by propidium iodide staining (reference value: 8.694%); type: functional, cell-based
NIH3T3 = assay: Cytotoxicity against mouse NIH/3T3 cells after 96 hrs by SRB assay; type: cell-based
[3] = Cell cycle arrest in human 518A2 cells assessed as accumulation at S phase at 50 uM after 24 hrs by propidium iodide staining (reference value: 44.643%); type: functional, cell-based
[4] = Cytotoxicity against human 518A2 cells after 96 hrs by SRB assay; type: functional, cell-based
MCF7 = assay: Cytotoxicity against human MCF7 cells after 96 hrs by SRB assay; type: functional, cell-based
518A2 [5] = assay: Induction of apoptosis in human 518A2 cells assessed as total apoptotic cells at 50 uM after 6 hrs by Annexin V FITC and propidium iodide staining by FACS analysis; type: functional
A2780 = assay: Cytotoxicity against human A2780 cells after 96 hrs by SRB assay; type: functional, cell-based
518A2 [6] = assay: Induction of apoptosis in human 518A2 cells assessed as necrotic cells at 50 uM after 6 hrs by Annexin V FITC and propidium iodide staining by FACS analysis; type: functional
[7] = Cell cycle arrest in human 518A2 cells assessed as accumulation at G1/G0 phase at 50 uM after 24 hrs by propidium iodide staining (reference value: 46.662%); type: functional, cell-based
HT-29 = assay: Cytotoxicity against human HT-29 cells after 96 hrs by SRB assay; type: functional, cell-based
8505C = assay: Cytotoxicity against human 8505C cells after 96 hrs by SRB assay; type: functional, cell-based
A549 = assay: Cytotoxicity against human A549 cells after 96 hrs by SRB assay; type: functional, cell-based
518A2 [8] = assay: Induction of apoptosis in human 518A2 cells assessed as formation of DNA ladder at 50 uM after 24 hrs using AO/PI dye by fluorescence microscopic analysis; type: functional, cell-based
[9] = Cell cycle arrest in human 518A2 cells assessed as accumulation at G2/M phase at 30 uM after 24 hrs by propidium iodide staining (reference value: 8.694%); type: functional, cell-based
[10] = Cell cycle arrest in human 518A2 cells assessed as accumulation at G1/G0 phase at 30 uM after 24 hrs by propidium iodide staining (reference value: 46.662%); type: functional, cell-based
518A2 [11] = assay: Induction of apoptosis in human 518A2 cells assessed as total apoptotic cells at 30 uM after 6 hrs by Annexin V FITC and propidium iodide staining by FACS analysis; type: functional
[12] = Cell cycle arrest in human 518A2 cells assessed as accumulation at S phase at 30 uM after 24 hrs by propidium iodide staining (reference value: 44.643%); type: functional, cell-based
518A2 [13] = assay: Induction of apoptosis in human 518A2 cells assessed as viable cells at 30 uM after 6 hrs by Annexin V FITC and propidium iodide staining by FACS analysis; type: functional; details: 518A2, 6 h, read-out: Activity
518A2 [14] = assay: Induction of apoptosis in human 518A2 cells assessed as necrotic cells at 30 uM after 6 hrs by Annexin V FITC and propidium iodide staining by FACS analysis; type: functional

| Structure (SMILES) | viability at 50 µM (518A2 [1]) [%] | Activity [2] [%] | IC50 (NIH3T3) [µmol] | Activity [3] [%] | IC50 [4] [µmol] | IC50 (MCF7) [µmol] | Activity (518A2 [5]) [%] | IC50 (A2780) [µmol] | Activity (518A2 [6]) [%] | Activity [7] [%] | IC50 (HT-29) [µmol] | IC50 (8505C) [µmol] | IC50 (A549) [µmol] | Activity (518A2 [8]) | Activity [9] [%] | Activity [10] [%] | Activity (518A2 [11]) [%] | Activity [12] [%] | viability at 30 µM (518A2 [13]) [%] | Activity (518A2 [14]) [%] |
| --- | --- | --- | --- | --- | --- | --- | --- | --- | --- | --- | --- | --- | --- | --- | --- | --- | --- | --- | --- | --- |
| COC(=O)[C@@]1(C)CC[C@]2(C)CC[C@]3(C)C(=CC(=O)[C@@H]4[C@@]5(C)CC[C@H](OC(C)=O)C(C)(C)[C@@H]5CC[C@]43C)[C@@H]2C1 | -19.3 | -7 | 101.4 | 4 | 26.1 | 51.6 | 16.8 | 40.5 | 2.5 | -2 | 77.4 | 116.4 | 42.6 | – | – | – | – | – | – | – |
| COC(=O)[C@@]1(C)CC[C@]2(C)CC[C@]3(C)c4c([se]c1c42)C(=O)[C@@H]1[C@@]2(C)CC[C@H](OC(C)=O)C(C)(C)[C@@H]2CC[C@]13C | -15 | -86 | 46.1 | 8 | 36.7 | 45.6 | 13.2 | 33.7 | 1.8 | 9 | 67.2 | 42.2 | 46.9 | Active | – | – | – | – | – | – |
| COC(=O)[C@@]1(C)CC[C@]2(C)CC[C@]3(C)[C@@]4(C(=O)OC1=C24)C(=O)[C@@H]1[C@@]2(C)CC[C@H](OC(C)=O)C(C)(C)[C@@H]2CC[C@]13C | – | – | 38.1 | – | 14.7 | 33.5 | – | 19.7 | – | – | 58.7 | 73.2 | 15 | – | -15 | 11 | 3.9 | -8 | -4.3 | 0.5 |
